Test results taken from patent publication US9499535B2, “Kinase inhibitors” (ORIGENIS GMBH, priority 2011, dated 2016).

These compounds were tested against T1, SYK kinase (Homo sapiens, UniProt P43405) (assay: SYK assay (OMNIA Kinase Assay, Invitrogen)). Details: apparent Ki calculated from the IC50 using the Cheng-Prusoff equation; 1 mM ATP, 10 μM Peptide Substrate; read-out: SYK Activities: Ki.
T1 construct: purchased Invitrogen, Carlsbad
Assay type: biochemical
Procedure: In the assay OMNIA® KINASE ASSAY by Invitrogen Corporation (Carlsbad) the effect of invention of a compound on the phosphorylation is determined by measurement of fluorescence intensity of a chelation-enhanced fluorophore called SOX. Upon phosphorylation of the peptide by the kinase of interest, Mg2+ is chelated to form a bridge between the SOX moiety and the phosphate group that is transferred to the specific tyrosine on the peptide. The fluorescence intensity is directly proportional to the amount of peptide phosphorylation.
To the wells of an 384 well small volume plate (Greiner, Frickenhausen) are added (i) the compound under test in 5% DMSO/distilled water (2 μl), (ii) 16 μl of the master mix containing ATP, DTT, Kinase Reaction Buffer, Omina Peptide Substrate Tyr 7 resulting in a final concentration of 1 mM ATP, 0.2 mM DTT and 10 μM Peptide Substrate.
The Master Mix and the assay plate was incubated to reaction temperature before the measurement (30° C.). The reaction was started with addition of (iii) 2 μl 4 μg/ml SYK kinase (Invitrogen, Carlsbad). During measurement fluorescence intensitiy readings were collected using a TECAN M1000 at a wavelength of λex 360/λem 485 nm every 30 s for 30 minutes. The reaction velocity was plotted versus the inhibitor concentration to determine the IC50 using XLFit 5.0 (IDBS, Guildford) to fit to a sigmoidal dose response curve, and the apparent Ki values were calculated from the IC50 using the Cheng-Prusoff equation (Cheng, Y.; Prusoff, W. H. Biochem. Pharmacol. 22, 3099-3108, 1973).
Compound COc1cccc2c1nc(Nc1ccc3c(c1)OCO3)c1n[nH]cc12 [Example #249, Benzo[1,3]dioxol-5-yl-(6-methoxy-2H-pyrazolo[3,4-c]quinolin-4-yl)-amine] has a Ki of 0.1 to 1 µM.
COc1ccc2nc(Nc3ccc4c(O)ncnc4c3)c3[nH]ncc3c2c1 [Example #110, 7-(8-Methoxy-3H-pyrazolo[3,4-c]quinolin-4-ylamino)-quinazolin-4-ol] was tested, and the Ki was 0.1 to 1 µM.
For COc1ccc2nc(Nc3ccc([N+](=O)[O-])cc3)c3n[nH]cc3c2c1 [Example #318, 8-methoxy-N-(4-nitrophenyl)-2H-pyrazolo[3,4-c]quinolin-4-amine], the Ki was < 0.01 µM.
Compound COc1ccc2nc(Nc3ccc(-n4nccn4)cc3)c3n[nH]cc3c2c1 [Example #345, N-(4-(2H-1,2,3-triazol-2-yl)phenyl)-8-methoxy-2H-pyrazolo[3,4-c]quinolin-4-amine] has a Ki of 0.1 to 1 µM.
c1ccc(Nc2nc3ccccc3c3c[nH]nc23)cc1 [Example #5, Phenyl-(2H-pyrazolo[3,4-c]quinolin-4-yl)-amine] gave a Ki of 0.1 to 1 µM.
COc1ccc2c(c1)nc(Nc1ccc3c(c1)OCO3)c1n[nH]cc12 [Example #267, Benzo[1,3]dioxol-5-yl-(7-methoxy-2H-pyrazolo[3,4-c]quinolin-4-yl)-amine] was tested, and the Ki was 0.01 to 0.1 µM.
In the case of c1ccc2c(c1)nc(Nc1ccc3[nH]cnc3c1)c1n[nH]cc12 [Example #17, (1H-Benzoimidazol-5-yl)-(2H-pyrazolo[3,4-c]quinolin-4-yl)-amine], the Ki is reported as 0.1 to 1 µM.
COc1ccc2nc(Nc3cccc(-n4nccn4)c3)c3n[nH]cc3c2c1 [Example #347, N-(3-(2H-1,2,3-triazol-2-yl)phenyl)-8-methoxy-2H-pyrazolo[3,4-c]quinolin-4-amine] gave a Ki of 0.1 to 1 µM.
Compound FC(F)(F)c1cccc(Nc2nc3ccccc3c3c[nH]nc23)c1 [Example #2, (2H-Pyrazolo[3,4-c]quinolin-4-yl)-(3-trifluoromethyl-phenyl)-amine] has a Ki of 0.1 to 1 µM.
Work on COc1ccc2nc(Nc3ccc4c(c3)COCO4)c3n[nH]cc3c2c1 [Example #146, (4H-Benzo[1,3]dioxin-6-yl)-(8-methoxy-2H-pyrazolo[3,4-c]quinolin-4-yl)-amine] yielded a Ki of 0.1 to 1 µM.
CN1CCN(c2ccc(Nc3nc4ccccc4c4c([N+](=O)[O-])[nH]nc34)cc2)CC1 [Example #214, [4-(4-Methyl-piperazin-1-yl)-phenyl]-(1-nitro-2H-pyrazolo[3,4-c]quinolin-4-yl)-amine] was tested, and the Ki was 0.1 to 1 µM.
In the case of Cn1ncc2ccc(Nc3nc4ccccc4c4c[nH]nc34)cc21 [Example #24, (1-Methyl-1H-indazol-6-yl)-(2H-pyrazolo[3,4-c]quinolin-4-yl)-amine], the Ki is reported as 0.1 to 1 µM.
Work on CCN1CCN(c2ccc(Nc3nc4cc(OC)ccc4c4c[nH]nc34)cc2)CC1 [Example #260, [4-(4-Ethyl-piperazin-1-yl)-phenyl]-(7-methoxy-2H-pyrazolo[3,4-c]quinolin-4-yl)-amine] yielded a Ki of 0.01 to 0.1 µM.
Compound Cc1nsc2nc(Nc3ccc(N4CCN(C)CC4)cc3)c3n[nH]cc3c12 [Example #220, [4-(4-Methyl-piperazin-1-yl)-phenyl]-(1-methyl-7H-3-thia-2,4,6,7-tetraaza-as-indacen-5-yl)-amine] has a Ki of 0.1 to 1 µM.
COc1ccc2nc(Nc3ccc(N4CCOCC4)c([N+](=O)[O-])c3)c3n[nH]cc3c2c1 [Example #359, 8-methoxy-N-(4-morpholino-3-nitrophenyl)-2H-pyrazolo[3,4-c]quinolin-4-amine] was tested, and the Ki was < 0.01 µM.
In the case of Cc1cc(Nc2nc3ccccc3c3c[nH]nc23)cc2cn[nH]c12 [Example #8, (7-Methyl-1H-indazol-5-yl)-(2H-pyrazolo[3,4-c]quinolin-4-yl)-amine], the Ki is reported as 0.1 to 1 µM.
COc1ccc2nc(Nc3cccc(N(C)C)c3)c3n[nH]cc3c2c1 [Example #76, N-(8-Methoxy-2H-pyrazolo[3,4-c]quinolin-4-yl)-N′,N′-dimethyl-benzene-1,3-diamine] was tested, and the Ki was 0.1 to 1 µM.
With FC(F)(F)c1[nH]nc2c(Nc3ccc4cn[nH]c4c3)nc3ccccc3c12 [Example #212, (1H-Indazol-6-yl)-(1-trifluoromethyl-2H-pyrazolo[3,4-c]quinolin-4-yl)-amine] the Ki was 0.1 to 1 µM.
c1ccc(Nc2nc3ccccc3c3cn[nH]c23)nc1 [Example #28, (3H-Pyrazolo[3,4-c]quinolin-4-yl)-pyridin-2-yl-amine] was tested, and the Ki was 0.1 to 1 µM.
In the case of COc1ccc2nc(Nc3nnc(C4CC4)[nH]3)c3n[nH]cc3c2c1 [Example #141, (5-Cyclopropyl-4H-[1,2,4]triazol-3-yl)-(8-methoxy-2H-pyrazolo[3,4-c]quinolin-4-yl)-amine], the Ki is reported as 0.1 to 1 µM.
Work on COc1ccc2nc(Nc3ccc4[nH]ncc4c3)c3n[nH]cc3c2n1 [Example #90, (1H-Indazol-5-yl)-(8-methoxy-2H-2,3,5,9-tetraaza-cyclopenta[a]naphthalen-4-yl)-amine] yielded a Ki of 0.1 to 1 µM.
Work on COc1cc(OC)c2nc(Nc3ccc(NC(=O)Nc4cccc(C)c4)cc3)c3n[nH]cc3c2c1 [Example #297, 1-(4-((6,8-dimethoxy-2H-pyrazolo[3,4-c]quinolin-4-yl)amino)phenyl)-3-(m-tolyl)urea] yielded a Ki of 0.1 to 1 µM.
COc1ccc2nc(Nc3cc(C)ccn3)c3n[nH]cc3c2c1 [Example #154, (8-Methoxy-2H-pyrazolo[3,4-c]quinolin-4-yl)-(4-methyl-pyridin-2-yl)-amine] gave a Ki of 0.1 to 1 µM.
COc1ccc2c(c1)nc(Nc1ccc(N3CCN(C)CC3)cc1)c1n[nH]cc12 [Example #176, (7-Methoxy-2H-pyrazolo[3,4-c]quinolin-4-yl)-[4-(4-methyl-piperazin-1-yl)-phenyl]-amine] was tested, and the Ki was 0.01 to 0.1 µM.
COc1ccc2nc(Nc3ccc(C(=O)N4CCCC4)cc3)c3n[nH]cc3c2c1 [Example #231, [4-(8-Methoxy-2H-pyrazolo[3,4-c]quinolin-4-ylamino)-phenyl]-pyrrolidin-1-yl-methanone] showed a Ki of 0.1 to 1 µM.
In the case of N#Cc1ccc2nc(Nc3ccc4cn[nH]c4c3)c3n[nH]cc3c2c1 [Example #197, 4-(1H-Indazol-6-ylamino)-2H-pyrazolo[3,4-c]quinoline-8-carbonitrile], the Ki is reported as < 0.01 µM.
COc1ccc2c(c1)nc(Nc1ccc3c(c1)OCCO3)c1n[nH]cc12 [Example #265, (2,3-Dihydro-benzo[1,4]dioxin-6-yl)-(7-methoxy-2H-pyrazolo[3,4-c]quinolin-4-yl)-amine] gave a Ki of 0.01 to 0.1 µM.
Compound COc1ccc2nc(Nc3ccc4c(c3)NC(=O)CN4)c3n[nH]cc3c2c1 [Example #182, 7-(8-Methoxy-2H-pyrazolo[3,4-c]quinolin-4-ylamino)-3,4-dihydro-1H-quinoxalin-2-one] has a Ki of 0.01 to 0.1 µM.
In the case of COc1ccc2nc(Nc3ccc4cc[nH]c4c3)c3[nH]ncc3c2c1 [Example #75, (1H-Indol-6-yl)-(8-methoxy-3H-pyrazolo[3,4-c]quinolin-4-yl)-amine], the Ki is reported as 0.1 to 1 µM.
Cc1nsc2nc(Nc3ccc4cn[nH]c4c3)c3n[nH]cc3c12 [Example #219, (1H-Indazol-6-yl)-(1-methyl-7H-3-thia-2,4,6,7-tetraaza-as-indacen-5-yl)-amine] gave a Ki of 0.01 to 0.1 µM.
For c1cc2c(cn1)nc(Nc1ccc3cn[nH]c3c1)c1n[nH]cc12 [Example #91, (1H-Indazol-6-yl)-(2H-2,3,5,7-tetraaza-cyclopenta[a]naphthalen-4-yl)-amine], the Ki was 0.01 to 0.1 µM.
With O=C(c1ccc(Nc2nc3cc(F)ccc3c3cn[nH]c23)cc1)N1CCCC1 [Example #342, (4-((7-fluoro-3H-pyrazolo[3,4-c]quinolin-4-yl)amino)phenyl)(pyrrolidin-1-yl)methanone] the Ki was 0.1 to 1 µM.
COc1ccc2nc(Nc3ccc(Cc4ccccc4)cc3)c3n[nH]cc3c2c1 [Example #190, (4-Benzyl-phenyl)-(8-methoxy-2H-pyrazolo[3,4-c]quinolin-4-yl)-amine] showed a Ki of 0.1 to 1 µM.
For COc1ccc2nc(Nc3nc4c(s3)CCCC4)c3n[nH]cc3c2c1 [Example #158, (8-Methoxy-2H-pyrazolo[3,4-c]quinolin-4-yl)-(4,5,6,7-tetrahydro-benzothiazol-2-yl)-amine], the Ki was 0.1 to 1 µM.
Work on COc1ccc(Nc2nc3ccccc3c3c(C(F)(F)F)[nH]nc23)cc1OC [Example #210, (3,4-Dimethoxy-phenyl)-(1-trifluoromethyl-2H-pyrazolo[3,4-c]quinolin-4-yl)-amine] yielded a Ki of 0.1 to 1 µM.
COc1ccc2nc(Nc3cc(C)c4[nH]ncc4c3)c3n[nH]cc3c2c1 [Example #10, (8-Methoxy-2H-pyrazolo[3,4-c]quinolin-4-yl)-(7-methyl-1H-indazol-5-yl)-amine] was tested, and the Ki was 0.01 to 0.1 µM.

The compounds below were run against LRRK2 (Homo sapiens, UniProt Q5S007) (assay: LRRK2 assay (LanthaScreen Eu Kinase Binding Assay)). Details: 5 nM LRRK2, 10 nM tracer 236, RT 1 h; read-out: LRRK2 Activites: IC50.
LRRK2, sequence (Q5S007 970-2527 limits assumed): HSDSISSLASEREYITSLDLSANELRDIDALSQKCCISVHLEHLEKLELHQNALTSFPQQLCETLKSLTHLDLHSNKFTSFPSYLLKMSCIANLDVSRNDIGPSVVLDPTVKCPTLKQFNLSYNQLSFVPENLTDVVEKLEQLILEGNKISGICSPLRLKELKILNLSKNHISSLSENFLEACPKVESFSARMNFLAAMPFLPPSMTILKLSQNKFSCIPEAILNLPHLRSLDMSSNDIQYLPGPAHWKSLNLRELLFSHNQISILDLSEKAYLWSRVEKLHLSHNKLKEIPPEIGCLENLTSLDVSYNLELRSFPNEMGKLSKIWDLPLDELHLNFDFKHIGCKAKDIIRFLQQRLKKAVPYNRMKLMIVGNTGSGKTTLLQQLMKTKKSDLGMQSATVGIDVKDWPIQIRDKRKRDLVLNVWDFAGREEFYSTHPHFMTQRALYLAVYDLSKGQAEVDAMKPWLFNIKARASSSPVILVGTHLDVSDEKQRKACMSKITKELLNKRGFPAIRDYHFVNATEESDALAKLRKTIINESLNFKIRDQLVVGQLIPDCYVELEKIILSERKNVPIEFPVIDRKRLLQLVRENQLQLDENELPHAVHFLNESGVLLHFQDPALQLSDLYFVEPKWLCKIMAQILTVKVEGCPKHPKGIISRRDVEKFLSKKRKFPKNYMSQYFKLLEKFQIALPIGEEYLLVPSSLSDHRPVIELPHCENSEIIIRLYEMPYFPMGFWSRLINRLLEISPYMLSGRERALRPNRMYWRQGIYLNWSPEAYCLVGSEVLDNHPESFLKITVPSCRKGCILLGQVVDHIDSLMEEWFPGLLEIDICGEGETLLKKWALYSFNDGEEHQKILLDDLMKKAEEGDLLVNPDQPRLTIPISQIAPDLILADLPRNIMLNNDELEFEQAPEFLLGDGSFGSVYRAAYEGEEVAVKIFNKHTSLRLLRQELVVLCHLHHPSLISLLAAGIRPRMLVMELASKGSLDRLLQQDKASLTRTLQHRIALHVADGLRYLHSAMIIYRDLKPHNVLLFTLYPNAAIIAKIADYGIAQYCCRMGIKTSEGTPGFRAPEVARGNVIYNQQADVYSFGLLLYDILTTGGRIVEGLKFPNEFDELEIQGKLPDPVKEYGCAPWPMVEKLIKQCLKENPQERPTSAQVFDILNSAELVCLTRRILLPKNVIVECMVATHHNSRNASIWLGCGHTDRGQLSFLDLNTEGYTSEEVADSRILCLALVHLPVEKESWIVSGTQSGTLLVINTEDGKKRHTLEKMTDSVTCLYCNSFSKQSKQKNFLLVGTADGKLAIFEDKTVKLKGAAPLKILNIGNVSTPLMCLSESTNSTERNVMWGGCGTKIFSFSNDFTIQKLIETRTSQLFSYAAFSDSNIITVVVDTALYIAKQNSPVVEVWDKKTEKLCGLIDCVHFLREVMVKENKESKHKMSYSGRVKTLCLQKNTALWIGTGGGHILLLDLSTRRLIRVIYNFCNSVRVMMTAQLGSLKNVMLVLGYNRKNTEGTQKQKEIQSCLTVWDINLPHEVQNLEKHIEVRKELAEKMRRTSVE
Description: Binding of the tracer to the kinase is detected using a europium-labeled anti-tag antibody, which binds to the kinase of interest. […] Binding of an inhibitor to the kinase competes for binding with the tracer, resulting in a loss of FRET. The fluorescence intensity ratio is directly proportional to the amount of peptide phosphorylation.
The inhibitor concentration was plotted versus the emission ratio to determine the IC50 using XLFit 5.0 (IDBS, Guildford) to fit to a sigmoidal dose response curve with a variable slope.
COc1ccc2nc(Nc3ccc4[nH]nnc4c3)c3n[nH]cc3c2c1 [Example #48, (1H-Benzotriazol-5-yl)-(8-methoxy-2H-pyrazolo[3,4-c]quinolin-4-yl)-amine] was tested, and the IC50 was 0.1 to 1 µM.
